Calls of active or inactive are those of the source. No cut-off for these calls is given here.
Columns and labels:
MCF7 = assay: Antiproliferative activity against human MCF7 cells incubated for 72 hrs by MTT assay; format: functional, cell-based
Bel-7402 [1] = assay: Induction of apoptosis in human Bel-7402 cells assessed as necrotic cells at 1 uM after 3 days by […]; format: functional; settings: time 3 day
SMMC-7721 = assay: Antiproliferative activity against human SMMC-7721 cells incubated for 72 hrs by MTT assay; format: functional, cell-based
A549 = assay: Antiproliferative activity against human A549 cells incubated for 72 hrs by MTT assay; format: functional, cell-based
K562 = assay: Cell cycle arrest in human K562 cells assessed as inhibition of DNA synthesis by measuring increase in cell population at S phase at 1 to 100 nM upto 24 hrs by RNase A/propidium iodide staining-based flow cytometric analysis; format: functional; settings: dose nM 1-100, time hrs <=24
Bel-7402 [2] = assay: Cell cycle arrest in human Bel-7402 cells assessed as increase in cell population at S phase at 3.7 nM by RNase A/propidium iodide staining-based flow cytometric analysis (reference value: 26.3%); format: functional
786-0 = assay: Antiproliferative activity against human 786-0 cells incubated for 72 hrs by MTT assay; format: functional, cell-based
Bel-7402 [3] = assay: Induction of apoptosis in human Bel-7402 cells assessed as late apoptotic cells at 0.1 uM after 72 hrs by FITC-annexin V/propidium iodide-double staining based flow cytometry (reference value: 3.06%); format: functional
SGC-7901 = assay: Antiproliferative activity against human SGC-7901 cells incubated for 72 hrs by MTT assay; format: functional, cell-based
Bel-7402 [4] = assay: Inhibition of colony formation in human Bel-7402 cells upto 1 uM incubated for 24 hrs measured after 12 days by 2D colony formation assay; format: functional, cell-based; settings: time 12.0 day
Bel-7402 [5] = assay: Induction of apoptosis in human Bel-7402 cells assessed as necrotic cells at 0.01 uM after 72 hrs by FITC-annexin V/propidium iodide-double staining based flow cytometry (reference value: 2.86%); format: functional
MKN-45 = assay: Antiproliferative activity against human MKN-45 cells incubated for 72 hrs by MTT assay; format: functional, cell-based
Bel-7402 [6] = assay: Inhibition of DNA synthesis in human Bel-7402 cells assessed as Brdu positive cells at 0.1 uM measured after 1 hr by propidium iodide staining-based BrdU incorporation assay (reference value: 29.8%); format: functional; parameters: scale not given: the % may be the effect or the level left; settings: time 30 min, 0.5 h
Bel-7402 [7] = assay: Cell cycle arrest in human Bel-7402 cells assessed as increase in cell population at S phase at 33 nM by RNase A/propidium iodide staining-based flow cytometric analysis (reference value: 26.3%); format: functional
Bel-7402 [8] = assay: Cell cycle arrest in human Bel-7402 cells assessed as increase in cell population at S phase at 100 nM by RNase A/propidium iodide staining-based flow cytometric analysis (reference value: 26.3%); format: functional
Bel-7402 [9] = assay: Induction of apoptosis in human Bel-7402 cells assessed as late apoptotic cells at 0.01 uM after 72 hrs by FITC-annexin V/propidium iodide-double staining based flow cytometry (reference value: 3.06%); format: functional
T47D = assay: Antiproliferative activity against human T47D cells incubated for 72 hrs by MTT assay; format: functional, cell-based
Bel-7402 [10] = assay: Inhibition of DNA synthesis in human Bel-7402 cells assessed as Brdu positive cells at 1 uM measured after 1 hrs by propidium iodide staining-based BrdU incorporation assay (reference value: 29.8%); format: functional; parameters: scale not given: the % may be the effect or the level left; settings: time 30 min, 0.5 h
U-118-MG = assay: Antiproliferative activity against human U-118-MG cells incubated for 72 hrs by MTT assay; format: functional, cell-based
Bel-7402 [11] = assay: Antiproliferative activity against human Bel-7402 cells incubated for 72 hrs by MTT assay; format: functional, cell-based
SK-HEP1 = assay: Antiproliferative activity against human SK-HEP 1 cells incubated for 72 hrs by MTT assay; format: functional, cell-based
Bel-7402 [12] = assay: Inhibition of DNA synthesis in human Bel-7402 cells assessed as Brdu positive cells at 0.01 uM measured after 1 hr by propidium iodide staining-based BrdU incorporation assay (reference value: 29.8%); format: functional; parameters: scale not given: the % may be the effect or the level left; settings: time 30 min, 0.5 h
SK-OV-3 = assay: Antiproliferative activity against human SK-OV-3 cells incubated for 72 hrs by MTT assay; format: functional, cell-based
HepG2 = assay: Antiproliferative activity against human HepG2 cells incubated for 72 hrs by MTT assay; format: functional, cell-based
Bel-7402 [13] = assay: Effect on DNA damage marker protein level in human Bel-7402 cells assessed as phosphorylation of CHK2 at Thr68[…] at 100 fold antiproliferative IC50 after 1 hr by Western blot analysis; format: functional, cell-based
PC-3 = assay: Antiproliferative activity against human PC-3 cells incubated for 72 hrs by MTT assay; format: functional, cell-based

Structure (SMILES): COc1cc2c3c(c4ccc(OCC#N)cc4c2cc1OC)CN1CCC[C@@H]1C3
- inhibition (MCF7): Active
- Activity (Bel-7402 [1]): 20%
- inhibition (SMMC-7721): Active
- inhibition (A549): Active
- Activity (K562): Active
- Activity (Bel-7402 [2]): 27%
- inhibition (786-0): Active
- Activity (Bel-7402 [3]): 8.29%
- inhibition (SGC-7901): Active
- inhibition (Bel-7402 [4]): Active
- Activity (Bel-7402 [5]): 1.59%
- inhibition (MKN-45): Active
- Activity (Bel-7402 [6]): 13%
- Activity (Bel-7402 [7]): 34%
- Activity (Bel-7402 [8]): 41.3%
- Activity (Bel-7402 [9]): 1.55%
- inhibition (T47D): Active
- Activity (Bel-7402 [10]): 8.15%
- inhibition (U-118-MG): Active
- inhibition (Bel-7402 [11]): Active
- inhibition (SK-HEP1): Active
- Activity (Bel-7402 [12]): 26.9%
- inhibition (SK-OV-3): Active
- inhibition (HepG2): Active
- Activity (Bel-7402 [13]): inactive
- inhibition (PC-3): Active
